Source: paper PMC7181660, “A novel specific PERK activator reduces toxicity and extends survival in Huntington's disease models” (Scientific Reports, 2020)

How the values were obtained:
Assay in all cases: biochemical
Format in all cases: biochemical
panel of 391 kinases [1] = biological target: panel of 391 kinases (Homo sapiens, UniProt P43405); settings: SYK, MK-28 1 µM, ATP 1 µM
panel of 391 kinases [2] = biological target: panel of 391 kinases (Homo sapiens, UniProt P00519); settings: ABL1, MK-28 1 µM, ATP 1 µM
panel of 391 kinases [3] = biological target: panel of 391 kinases (Homo sapiens, UniProt Q14012); settings: CAMK1a, MK-28 1 µM, ATP 1 µM
panel of 391 kinases [4] = biological target: panel of 391 kinases (Homo sapiens, UniProt P07947); settings: YES/YES1, MK-28 1 µM, ATP 1 µM
panel of 391 kinases [5] = biological target: panel of 391 kinases (Homo sapiens, UniProt Q8TD19); settings: NEK9, MK-28 1 µM, ATP 1 µM
panel of 391 kinases [6] = biological target: panel of 391 kinases (Homo sapiens, UniProt Q32MK0); settings: MYLK3, MK-28 1 µM, ATP 1 µM
panel of 391 kinases [7] = biological target: panel of 391 kinases (Homo sapiens, UniProt O14920); settings: IKKb/IKBKB, MK-28 1 µM, ATP 1 µM
panel of 391 kinases [8] = biological target: panel of 391 kinases (Homo sapiens, UniProt P41240); settings: CSK, MK-28 1 µM, ATP 1 µM
panel of 391 kinases [9] = biological target: panel of 391 kinases (Homo sapiens, UniProt Q07002); settings: CDK18/cyclin Y (PCTK3), MK-28 1 µM, ATP 1 µM
panel of 391 kinases [10] = biological target: panel of 391 kinases (Homo sapiens, UniProt Q9HBY8); settings: SGK2, MK-28 1 µM, ATP 1 µM
panel of 391 kinases [11] = biological target: panel of 391 kinases (Homo sapiens, UniProt Q86SG6); settings: NEK8, MK-28 1 µM, ATP 1 µM
panel of 391 kinases [12] = biological target: panel of 391 kinases (Homo sapiens, UniProt Q13882); settings: BRK, MK-28 1 µM, ATP 1 µM
panel of 391 kinases [13] = biological target: panel of 391 kinases (Homo sapiens, UniProt Q15119); settings: kinase PDK2/PDHK2, compound at 1 µM, single dose in duplicates, 1 µM ATP
panel of 391 kinases [14] = biological target: panel of 391 kinases (Homo sapiens, UniProt Q6P2M8); settings: CAMK1b, MK-28 1 µM, ATP 1 µM
panel of 391 kinases [15] = biological target: panel of 391 kinases (Homo sapiens, UniProt O00506); settings: STK25/YSK1, MK-28 1 µM, ATP 1 µM
panel of 391 kinases [16] = biological target: panel of 391 kinases (Homo sapiens, UniProt Q12852); settings: DLK/MAP3K12, MK-28 1 µM, ATP 1 µM
panel of 391 kinases [17] = biological target: panel of 391 kinases (Homo sapiens, UniProt P51817); settings: PRKX, MK-28 1 µM, ATP 1 µM
panel of 391 kinases [18] = biological target: panel of 391 kinases (Homo sapiens, UniProt P29597); settings: TYK2, MK-28 1 µM, ATP 1 µM
panel of 391 kinases [19] = biological target: panel of 391 kinases (Homo sapiens, UniProt P52564); settings: MKK6, MK-28 1 µM, ATP 1 µM
panel of 391 kinases [20] = biological target: panel of 391 kinases (Homo sapiens, UniProt Q9H1R3); settings: MLCK2/MYLK2, MK-28 1 µM, ATP 1 µM
panel of 391 kinases [21] = biological target: panel of 391 kinases (Homo sapiens, UniProt P15056); settings: BRAF, MK-28 1 µM, ATP 1 µM
panel of 391 kinases [22] = biological target: panel of 391 kinases (Homo sapiens, UniProt O14733); settings: MKK7, MK-28 1 µM, ATP 1 µM
panel of 391 kinases [23] = biological target: panel of 391 kinases (Homo sapiens, UniProt O75716); settings: STK16, MK-28 1 µM, ATP 1 µM
panel of 391 kinases [24] = biological target: panel of 391 kinases (Homo sapiens, UniProt Q6P3R8); settings: NEK5, MK-28 1 µM, ATP 1 µM
panel of 391 kinases [25] = biological target: panel of 391 kinases (Homo sapiens, UniProt P35916); settings: FLT4/VEGFR3, MK-28 1 µM, ATP 1 µM
panel of 391 kinases [26] = biological target: panel of 391 kinases (Homo sapiens, UniProt P57078); settings: RIPK4, MK-28 1 µM, ATP 1 µM
[27] = read-out: % Enzyme Activity (relative to DMSO controls)

Structure (SMILES): CN(/N=C\c1ccc(O)c(O)c1)c1nc(-c2ccccc2)cc(-c2ccccc2)n1 [MK-28]
- % Enzyme Activity (relative to DMSO controls) (panel of 391 kinases [1]): 91.75%
- remaining activity at 1 µM (panel of 391 kinases [1]; [27]): 93%
- % Enzyme Activity (relative to DMSO controls) (panel of 391 kinases [2]): 94.94%
- remaining activity at 1 µM (panel of 391 kinases [2]; [27]): 98.9%
- % Enzyme Activity (relative to DMSO controls) (panel of 391 kinases [3]): 77.40%
- remaining activity at 1 µM (panel of 391 kinases [3]; [27]): 77.7%
- % Enzyme Activity (relative to DMSO controls) (panel of 391 kinases [4]): 96.24%
- remaining activity at 1 µM (panel of 391 kinases [4]; [27]): 97.6%
- % Enzyme Activity (relative to DMSO controls) (panel of 391 kinases [5]): 96.03%
- remaining activity at 1 µM (panel of 391 kinases [5]; [27]): 101%
- % Enzyme Activity (relative to DMSO controls) (panel of 391 kinases [6]): 104.33%
- remaining activity at 1 µM (panel of 391 kinases [6]; [27]): 106%
- % Enzyme Activity (relative to DMSO controls) (panel of 391 kinases [7]): 96.13%
- remaining activity at 1 µM (panel of 391 kinases [7]; [27]): 96.9%
- % Enzyme Activity (relative to DMSO controls) (panel of 391 kinases [8]): 96.35%
- remaining activity at 1 µM (panel of 391 kinases [8]; [27]): 96.9%
- % Enzyme Activity (relative to DMSO controls) (panel of 391 kinases [9]): 109.27%
- remaining activity at 1 µM (panel of 391 kinases [9]; [27]): 111%
- % Enzyme Activity (relative to DMSO controls) (panel of 391 kinases [10]): 79.78%
- remaining activity at 1 µM (panel of 391 kinases [10]; [27]): 81.3%
- % Enzyme Activity (relative to DMSO controls) (panel of 391 kinases [11]): 101.46%
- remaining activity at 1 µM (panel of 391 kinases [11]; [27]): 101%
- % Enzyme Activity (relative to DMSO controls) (panel of 391 kinases [12]): 102.30%
- remaining activity at 1 µM (panel of 391 kinases [12]; [27]): 104%
- % Enzyme Activity (relative to DMSO controls) (panel of 391 kinases [13]): 99.55%
- remaining activity at 1 µM (panel of 391 kinases [13]; [27]): 103%
- % Enzyme Activity (relative to DMSO controls) (panel of 391 kinases [14]): 94.89%
- remaining activity at 1 µM (panel of 391 kinases [14]; [27]): 96.9%
- % Enzyme Activity (relative to DMSO controls) (panel of 391 kinases [15]): 93.29%
- remaining activity at 1 µM (panel of 391 kinases [15]; [27]): 95.7%
- % Enzyme Activity (relative to DMSO controls) (panel of 391 kinases [16]): 122.20%
- remaining activity at 1 µM (panel of 391 kinases [16]; [27]): 124%
- % Enzyme Activity (relative to DMSO controls) (panel of 391 kinases [17]): 101.69%
- remaining activity at 1 µM (panel of 391 kinases [17]; [27]): 104%
- % Enzyme Activity (relative to DMSO controls) (panel of 391 kinases [18]): 90.72%
- remaining activity at 1 µM (panel of 391 kinases [18]; [27]): 91.3%
- % Enzyme Activity (relative to DMSO controls) (panel of 391 kinases [19]): 94.11%
- remaining activity at 1 µM (panel of 391 kinases [19]; [27]): 95.6%
- % Enzyme Activity (relative to DMSO controls) (panel of 391 kinases [20]): 95.96%
- remaining activity at 1 µM (panel of 391 kinases [20]; [27]): 96.4%
- % Enzyme Activity (relative to DMSO controls) (panel of 391 kinases [21]): 99.64%
- remaining activity at 1 µM (panel of 391 kinases [21]; [27]): 101%
- % Enzyme Activity (relative to DMSO controls) (panel of 391 kinases [22]): 95.27%
- remaining activity at 1 µM (panel of 391 kinases [22]; [27]): 96.9%
- % Enzyme Activity (relative to DMSO controls) (panel of 391 kinases [23]): 108.93%
- remaining activity at 1 µM (panel of 391 kinases [23]; [27]): 109%
- % Enzyme Activity (relative to DMSO controls) (panel of 391 kinases [24]): 79.32%
- remaining activity at 1 µM (panel of 391 kinases [24]; [27]): 81.8%
- % Enzyme Activity (relative to DMSO controls) (panel of 391 kinases [25]): 92.88%
- remaining activity at 1 µM (panel of 391 kinases [25]; [27]): 94.1%
- % Enzyme Activity (relative to DMSO controls) (panel of 391 kinases [26]): 89.94%
- remaining activity at 1 µM (panel of 391 kinases [26]; [27]): 95.1%
